Experimental data from patent US20230382889A1 (Volastra Therapeutics, Inc., priority 2022, published 2023).

Legend:
HCC15 cells = test: Cell viability of KIF18a-sensitive cell lines, HCC15 (Cell Titre-Glo, 7 days); type: cell-based; conditions: 168 h; HCC15, 7 days; read-out: HCC15 IC50
Procedure: (§1) Cell lines were seeded as follows 24 hours before compound treatment: HCC15 (Korean Cell Line Bank) 600 cell/well, 95 μL of RPMI-1640 media supplemented with 100 units/mL penicillin, 100 units/mL streptomycin and 10% FBS; NIH:OVCAR-3 (ATCC), 1000 cell/well, 95 μL of RPMI-1640 media supplemented with 100 units/mL penicillin, 100 units/mL streptomycin, 0.01 mg/mL bovine insulin, and 20% FBS; JIMT-1 (Addexbio) 1000 cell/well, 95 μL of DMEM media supplemented with 100 units/mL penicillin, 100 units/mL streptomycin, and 10% FBS.
(§2) Test compounds were added to cells in a 20× dilution scheme by adding 5 μL of serially diluted compound to the plate, and the treated cells were incubated for an additional 7 days in a 37° C., 5% CO2 incubator. DMSO was used as the negative control (0% effect), and wells omitting cells were used as the positive control (100% effect). The cells were incubated for seven days, and cell viability determined via the Promega Cell Titre-Glo® Assay kit. Luminescence units were converted to ATP concentrations via an ATP standard curve (10 point, 2-fold dilution from 5 uM). % Inhibition was calculated for each well as: ([max−min]−[test−min])/[max−min]. IC50 values were calculated from concentration vs. % Inhibition data via a four-parameter variable slope model.

OVCAR-3 tumor cells = test: In vivo activity, OVCAR-3 xenograft tumor growth inhibition; conditions: OVCAR3 model, Balb/C nude mice, FIG. 1
Procedure: (§3) OVCAR-3 (ATCC) tumor cells were maintained in vitro in RPMI-1640 medium supplemented with 20% fetal bovine serum, 0.01 mg/mL bovine insulin and 1% Anti-Anti at 37° C. in an atmosphere of 5%/CO2 in air. HCC15 (DSMZ) tumor cells were maintained in vitro in RPMI 1640 medium supplemented with 10% fetal bovine serum and 1% Anti-Anti at 37° C. in an atmosphere of 5% CO2 in air.
(§4) The tumor cells were sub-cultured twice weekly. The cells growing in an exponential growth phase were harvested and counted for tumor inoculation.
(§5) Tumor cells (10×106) in 0.2 mL of PBS mixed with Matrigel (50:50) were inoculated subcutaneously on the right flank of each mouse. When the average tumor volume reached 110-175 mm^3, animals were randomized into groups of 10 and treatment started. OVCAR-3 cells were implanted in Balb/C nude mice, and HCC15 cell were implanted in SCID Beige mice.
(§6) Compounds were dosed once or twice a day (12 h) orally. Tumor Growth Inhibition (TGI) was calculated using the formula: TGI (%)=[1−(TN−T0)/(VN−V0)]×100; TN is the average tumor volume of a treatment group at the indicated timepoint, T0 is the average tumor volume of the treatment group on treatment day 0, VN is the average tumor volume of the vehicle control group at the indicated timepoint, and V0 is the average tumor volume of the vehicle group on treatment day 0. P value was calculated based on tumor size by One-Way ANOVA with GraphPad Prism 9.4.0 compared with the vehicle group, respectively. **** indicates p<0.0001.
(§7) The tumor volume of vehicle- and compound-treated mice as a function of time after start of treatment and the results of treatments with selected compounds on SCID Beige mice or nude mice implanted with HCC15 or OVCAR-3 are shown in FIGS. 1 and 2. The TGI calculated for treatments with selected compounds are shown in Table 11.

[1] = biological target: KIF18a-microtubule complex (Homo sapiens (Human), UniProt Q8NI77); test: Binding kinetics to KIF18a-microtubule complex (global progress curve analysis); conditions: for kon (on-rate from binding kinetics assay) / koff: KIF18A 0.25 nM, up to 24 hr; for koff: read-out: koff (off-rate from binding kinetics assay) (converted); for Ki: koff/kon, read-out: KI (determined from binding kinetic assay koff/kon)
Procedure: Compound binding kinetics parameters (kon and koff) were determined by the method of global progress curve analysis (GPCA). […] ADP product levels were determined by the Promega® ADP-Glo assay.

hKIF18A (1-374) = hKIF18A (1-374) (Homo sapiens (Human), UniProt Q8NI77); test: Inhibition of KIF18A microtubule-dependent ATPase activity (ADP-Glo); type: biochemical; conditions: 4 nM hKIF18A (1-374)
How it was run: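 Reaction was started with pre-formed microtubules and ATP (0.2 mg/mL and 2.0 mM in the added mix) and run 60 min at 28 °C. ADP was read by ADP-Glo luminescence, and IC50 came from a four-parameter fit of % inhibition.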

HCC15 tumor cells = test: In vivo activity, HCC15 xenograft tumor growth inhibition; conditions: HCC15 model, SCID Beige mice, FIG. 2
Procedure: as §3, §4, §5, §6, §7

JIMT-1 cells = test: Cell viability of KIF18a-sensitive cell lines, JIMT-1 (Cell Titre-Glo, 7 days); type: cell-based; conditions: Homo sapiens, 168 h; JIMT-1, 7 days; read-out: JIMT-1 IC50
Procedure: as §1, §2

NIH:OVCAR-3 cells = test: Cell viability of KIF18a-sensitive cell lines, NIH:OVCAR-3 (Cell Titre-Glo, 7 days); type: cell-based; conditions: Homo sapiens, OVCAR-3, 168 h; NIH:OVCAR3, 7 days; read-out: NIH:OVCAR3 IC50
Procedure: as §1, §2

Chain of KIF18a-microtubule complex (Q8NI77 1-374, one chain of several): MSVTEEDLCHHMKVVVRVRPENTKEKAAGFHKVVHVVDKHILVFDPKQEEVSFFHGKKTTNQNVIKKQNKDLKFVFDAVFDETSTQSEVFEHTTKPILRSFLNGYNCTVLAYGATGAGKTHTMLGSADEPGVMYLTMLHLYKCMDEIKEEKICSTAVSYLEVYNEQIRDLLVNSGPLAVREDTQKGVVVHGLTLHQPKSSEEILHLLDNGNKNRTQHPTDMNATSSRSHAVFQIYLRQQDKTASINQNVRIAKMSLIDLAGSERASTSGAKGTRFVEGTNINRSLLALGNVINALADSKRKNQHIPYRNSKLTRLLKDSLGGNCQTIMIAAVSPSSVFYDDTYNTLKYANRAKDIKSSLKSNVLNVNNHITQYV
Chain of hKIF18A (1-374) (Q8NI77 1-374): as the sequence (Q8NI77 1-374, one chain of several) above

Compound | IC50 (HCC15 cells) [nM] | TGI (OVCAR-3 tumor cells; 3 mg/kg QD PO) [%] | TGI (OVCAR-3 tumor cells; 10 mg/kg QD PO) [%] | TGI (OVCAR-3 tumor cells; 30 mg/kg QD PO) [%] | kon (on-rate from binding kinetics assay) [1] [M⁻¹ s⁻¹] | koff [1] [s⁻¹] | Ki [1] [nM] | disc. t1/2 (dissociation half-life ln(2)/koff) [1] [h] | IC50 (hKIF18A (1-374)) [nM] | TGI (HCC15 tumor cells; 3 mg/kg QD PO) [%] | TGI (HCC15 tumor cells; 10 mg/kg QD PO) [%] | TGI (HCC15 tumor cells; 30 mg/kg QD PO) [%] | IC50 (JIMT-1 cells) [nM] | IC50 (NIH:OVCAR-3 cells) [nM]
Cc1cc(-c2cn(-c3ccc(NS(=O)(=O)CCO)cc3N3CCC4(CC3)CC4)nn2)nc(N2CCC(F)(F)CC2)n1 [Compound 47, N-(4-(4-(2-(4,4-difluoropiperidin-1-yl)-6-methylpyrimidin-4-yl)-1H-1,2,3-triazol-1-yl)-3-(6-azaspiro[2.5]octan-6-yl)phenyl)-2-hydroxyethane-1-sulfonamide] | 9.2 | 44 ± 11 | 119 ± 1 | 120 ± 1 | 14400 | 2.78e-06 | 0.2 | 68 | 19 | 64 ± 7 | 83 ± 4 | 87 ± 4 | 16 | 13
CS(=O)(=O)Nc1ccc(-n2cc(-c3cccc(N4CCC(F)(F)CC4)n3)nn2)c(N2CCCCC2)c1 [Compound 15, N-(4-(4-(6-(4,4-difluoropiperidin-1-yl)pyridin-2-yl)-1H-1,2,3-triazol-1-yl)-3-(piperidin-1-yl)phenyl)methanesulfonamide] | 12 |  |  |  | 21900 | 1.14e-05 | 0.52 | 17 | 6.6 |  |  |  | 12 | 18
